Measurements from patent US20220073536A1 (Rigel Pharmaceuticals, Inc., priority 2003, published 2022).
Counter-ions that a name gives are not always drawn. One block for each molecule: values may come before it.

Columns and labels:
[1] = tested on: cultured human mast cells (CHMC); experiment: CHMC low cell density IgE activation: tryptase assay; format: cell-based; details: IgE activation
In short: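 Low-density CHMC, 1000-1500 cells/well in MT; 1 hr 37 °C; anti-IgE challenge 30 min 37 °C; supernatant tryptase via fluorogenic substrate, 30 min RT.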

[2] = tested on: cultured human mast cells (CHMC); experiment: CHMC low cell density ionomycin activation: tryptase assay; format: cell-based; details: read-out: LD Tryptase, CHMC, Iono, 3 pt
[3] = Homo sapiens, Mast cell, low cell density, 3 pt, read-out: LD Tryptase, CHMC, IgE, 3 pt
[4] = Homo sapiens, Mast cell, low cell density, 3 pt
[5] = Homo sapiens, Mast cell, low cell density CHMC, tryptase readout, 3 pt, read-out: LD Tryptase, CHMC, IgE, 3 pt
[6] = Homo sapiens, Mast cell, low cell density CHMC, tryptase readout, 8 pt, read-out: LD Tryptase, CHMC, IgE, 8 pt
[7] = Homo sapiens, Mast cell, low cell density CHMC, tryptase readout, 3 pt
[8] = Homo sapiens, Mast cell, low cell density, 8 pt, read-out: LD Tryptase, CHMC, IgE, 8 pt
[9] = low cell density, 3 pt, read-out: LD Tryptase, CHMC, IgE, 3 pt
[10] = Homo sapiens, Mast cell, low cell density CHMC, tryptase, 3 pt, read-out: LD Tryptase, CHMC, IgE, 3 pt
[11] = Homo sapiens, Mast cell, low cell density CHMC, tryptase, 8 pt, read-out: LD Tryptase, CHMC, IgE, 8 pt
[12] = Homo sapiens, Mast cell, low cell density CHMC, tryptase, 3 pt
[13] = low cell density CHMC, tryptase release, 3 point, read-out: LD Tryptase, CHMC, IgE, 3 pt
[14] = low cell density CHMC, tryptase release, 8 point, read-out: LD Tryptase, CHMC, IgE, 8 pt
[15] = low cell density CHMC, tryptase release, 3 point
[16] = low cell density CHMC, tryptase readout, 3 pt, read-out: LD Tryptase, CHMC, IgE, 3 pt
[17] = low cell density CHMC, tryptase readout, 8 pt, read-out: LD Tryptase, CHMC, IgE, 8 pt
[18] = low cell density CHMC, tryptase readout, 3 pt

IC50 ([1]; Homo sapiens, Mast cell, low cell density CHMC, tryptase release, 3 point, read-out: LD Tryptase, CHMC, IgE, 3 pt): < 10 µM | IC50 ([1]; Homo sapiens, Mast cell, low cell density CHMC, tryptase release, 8 point, read-out: LD Tryptase, CHMC, IgE, 8 pt): < 10 µM | IC50 ([2]; Homo sapiens, Mast cell, low cell density CHMC, tryptase release, 3 point): > 10 µM
Compound: Fc1cnc(Nc2ccc3cc[nH]c3c2)nc1Nc1ccc(Cl)c(C(F)(F)F)c1 [Compound 629, N4-(4-Chloro-3-trifluoromethylphenyl)-5-fluoro-N2-(indol-6-yl)-2,4-pyrimidinediamine]

IC50 [1, 3]: > 10 µM | IC50 [2, 4]: > 10 µM
Compound: CN(c1ccc2c(c1)OCCO2)c1nc(NCCO)ncc1F [Compound 469, N4-(3,4-Ethylenedioxyphenyl)-5-fluoro-N2-(2-hydroxyethyl)-N4-methyl-2,4-pyrimidinediamine]

IC50 [1, 5]: < 10 µM | IC50 [1, 6]: < 10 µM | IC50 [2, 7]: > 10 µM
Compound: Cc1cc(C)cc(Nc2ncc(F)c(NC3CCC3)n2)c1 [Compound 1087, N4-Cyclobutyl-N2-(3,5-dimethylphenyl)-5-fluoro-2,4-pyrimidinediamine]

IC50 [1, 3]: < 10 µM | IC50 [1, 8]: < 10 µM | IC50 [2, 4]: < 10 µM
Compound: COc1cc(OC)cc(N(C)c2nc(Nc3ccc(OC)nc3OC)ncc2F)c1 [Compound 457]

IC50 [1, 9]: < 10 µM | IC50 ([2]; low cell density, 3 pt): > 10 µM
Compound: CNC(=O)c1cc(Nc2ncc(F)c(N(C)c3ccc(OC)c(OC)c3)n2)ccc1Cl [Compound 454, N2-[4-Chloro-3-(N-methylamino)carbonylphenyl]-N4-(3,4-dimethoxyphenyl)-5-fluoro-N4-methyl-4-pyrimidinediamine]

IC50 [1, 10]: < 10 µM | IC50 [1, 11]: < 10 µM | IC50 [2, 12]: > 10 µM
Compound: COc1ccc(N(C)c2nc(Nc3cccc(-c4cnco4)c3)ncc2F)cc1OC [Compound 438, N4-(3,4-Dimethoxyphenyl)-5-fluoro-N4-methyl-N2-[3-(oxazol-5-yl)phenyl]-2,4-pyrimidinediamine]

IC50 [1, 10]: < 10 µM | IC50 [2, 12]: > 10 µM
Compound: CC(=O)N1CCN(c2cccc(Nc3ncc(F)c(NC4CCCC4)n3)c2)CC1 [Compound 1159, N2-[3-(4-Acetylpiperazino)phenyl]-N4-cyclopentyl-5-fluoro-2,4-pyrimidinediamine]

IC50 [1, 13]: < 10 µM | IC50 [1, 14]: < 10 µM | IC50 [2, 15]: < 10 µM
Compound: COc1cc(Nc2ncc(F)c(Nc3ccc(OCCO)c(Cl)c3)n2)cc(OC)c1 [Compound 620, N4-[3-Chloro-4-(2-hydroxyethyleneoxy)phenyl]-N2-(3,5-dimethoxyphenyl)-5-fluoro-2,4-pyrimidinediamine]

IC50 [1, 3]: < 10 µM | IC50 [1, 8]: < 10 µM | IC50 [2, 4]: > 10 µM
Compound: CNS(=O)(=O)c1ccc(Nc2ncc(F)c(Nc3ccc4c(c3)OCCO4)n2)cc1OC [Compound 493, N4-(3,4-Ethylenedioxyphenyl)-5-fluoro-N2-[4-(N-methylamino)sulfonyl-3-methoxyphenyl]-2,4-pyrimidinediamine]

IC50 [1, 9]: > 10 µM | IC50 ([2]; low cell density, 3 pt): < 10 µM
Compound: CCOC(=O)C(C)(C)Oc1ccc(N(C)c2nc(Cl)ncc2F)cc1Cl [Compound 470, 2-Chloro-N4-[3-chloro-4-(ethoxycarbonyl-1,1-dimethylmethyleneoxy)phenyl]-5-fluoro-N4-methyl-4-pyrimidineamine]

IC50 [1, 13]: < 10 µM | IC50 [2, 15]: > 10 µM
Compound: CNC(=O)COc1c(C)cc(Nc2ncc(F)c(N(C)c3ccc(OC)c(Cl)c3)n2)cc1C [Compound 579, N4-(3-Chloro-4-methoxyphenyl)-N2-[3,5-dimethyl-4-(N-methylamino)carbonylmethyleneoxyphenyl]-5-fluoro-N4-methyl-2,4-pyrimidinediamine]

IC50 [1, 3]: < 10 µM | IC50 [1, 8]: < 10 µM | IC50 [2, 4]: > 10 µM
Compound: CNC(=O)c1cc(Nc2nc(Nc3cc(OC)cc(OC)c3)ncc2F)ccc1Cl [Compound 475, N4-[4-Chloro-3-(N-methylamino)carbonylphenyl]-N2-(3,5-dimethoxyphenyl)-5-fluoro-2,4-pyrimidinediamine]

IC50 [1, 3]: > 10 µM | IC50 [2, 4]: > 10 µM
Compound: COc1ccc(N(C)c2nc(Cl)ncc2F)c(OC)n1 [Compound 490]

IC50 [1, 10]: < 10 µM | IC50 [2, 12]: > 10 µM
Compound: Fc1cnc(Nc2ccc(N3CCOCC3)cc2)nc1NC1CCCCC1 [Compound 1162, N4-Cyclohexyl-5-fluoro-N2-(4-morpholinophenyl)-2,4-pyrimidinediamine]

IC50 [1, 10]: < 10 µM | IC50 [1, 11]: < 10 µM | IC50 [2, 12]: < 10 µM
Compound: COC(=O)CCNC(=O)c1ccc(Nc2ncc(F)c(Nc3ccc(Cl)c(Cl)c3)n2)cc1 [Compound 1305]

IC50 [1, 13]: < 10 µM | IC50 [1, 14]: < 10 µM | IC50 [2, 15]: > 10 µM
Compound: CNC(=O)COc1cccc(Nc2ncc(F)c(N(C)c3cc(C)c(Cl)c(C)c3)n2)c1 [Compound 593, N4-(4-Chloro-3,5-dimethylphenyl)-5-fluoro-N4-methyl-N2-[3-(N-methylamino)carbonylmethyleneoxyphenyl]-2,4-pyrimidinediamine]

Compound: CNC(=O)COc1cccc(Nc2ncc(F)c(Nc3ccc4c(c3)NC(=O)C(F)(F)O4)n2)c1 [Compound 1045, N4-(2,2-Difluoro-3-oxo-4H-benz[1,4]oxazin-6-yl)-5-fluoro-N2-[3-(N-methylamino)carbonylmethyleneoxyphenyl]-2,4-pyrimidinediamine Hydrogen Chloride Salt]
IC50 [1, 16]: < 10 µM | IC50 [1, 17]: < 10 µM | IC50 [2, 18]: > 10 µM

IC50 ([1]; low cell density CHMC, tryptase release, 3 pt, read-out: LD Tryptase, CHMC, IgE, 3 pt): < 10 µM | IC50 ([2]; low cell density CHMC, tryptase release, 3 pt): > 10 µM
Compound: NC(=S)c1cccc(Nc2ncc(F)c(Nc3ccc4c(c3)NC(=O)CO4)n2)c1 [Compound 261, N2-(3-Benzothioamide)-5-fluoro-N4-(3-oxo-2H,4H-benz[1,4]oxazin-6-yl)-2,4-pyrimidinediamine]

IC50 [1, 10]: < 10 µM | IC50 [1, 11]: < 10 µM | IC50 [2, 12]: > 10 µM
Compound: CCOC(=O)c1cc2cccc(Nc3ncc(F)c(Nc4ccc(OC)c(OC)c4)n3)c2[nH]1 [Compound 415, N4-(3,4-Dimethoxyphenyl)-N2-[2-(ethoxycarbonyl)indol-7-yl]-5-fluoro-2,4-pyrimidinediamine]

IC50 [1, 3]: > 10 µM | IC50 [2, 4]: > 10 µM
Compound: CN(c1ccc2c(c1)OCCO2)c1nc(N)ncc1F [Compound 487, N4-(3,4-Ethylenedioxyphenyl)-5-fluoro-N4-methyl-2,4-pyrimidinediamine]

IC50 [1, 5]: > 10 µM | IC50 [1, 6]: < 10 µM | IC50 [2, 7]: > 10 µM
Compound: CC1(C)Oc2ccc(Nc3nc(Nc4ccc5cn[nH]c5c4)ncc3F)cc2NC1=O [Compound 1047, N4-(2,2-Dimethyl-3-oxo-4H-benz[1,4]oxazin-6-yl)-5-fluoro-N2-(indazol-6-yl)-2,4-pyrimidinediamine Methanesulfonic Acid Salt]

IC50 ([1]; low cell density CHMC, tryptase, 3 pt, read-out: LD Tryptase, CHMC, IgE, 3 pt): < 10 µM | IC50 ([1]; low cell density CHMC, tryptase, 8 pt, read-out: LD Tryptase, CHMC, IgE, 8 pt): < 10 µM | IC50 ([2]; low cell density CHMC, tryptase, 3 pt): > 10 µM
Compound: CN1CCN(c2ccc(Nc3ncc(F)c(Nc4ccc5c(n4)NCCO5)n3)cc2)CC1 [Compound 1141, N4-(3,4-Dihydro-2H,4H-5-pyrid[1,4]oxazin-6-yl)-5-fluoro-N2-[4-(4-methylpiperazino)phenyl]-2,4-pyrimidinediamine]

IC50 ([1]; Homo sapiens, Mast cell, low cell density CHMC, tryptase release, 3 pt, read-out: LD Tryptase, CHMC, IgE, 3 pt): < 10 µM | IC50 ([1]; Homo sapiens, Mast cell, low cell density CHMC, tryptase release, 8 pt, read-out: LD Tryptase, CHMC, IgE, 8 pt): < 10 µM | IC50 ([2]; Homo sapiens, Mast cell, low cell density CHMC, tryptase release, 3 pt): > 10 µM
Compound: CC(=O)OCCCn1ncc2ccc(Nc3ncc(F)c(Nc4ccc(Cl)c(Cl)c4)n3)cc21 [Compound 790, N2-[1-(3-Acetyloxypropyl)indazol-6-yl]-N4-(3,4-dichlorophenyl)-5-fluoro-2,4-pyrimidinediamine]

IC50 [1, 16]: < 10 µM | IC50 [1, 17]: < 10 µM | IC50 [2, 18]: > 10 µM
Compound: CNC(=O)COc1cccc(Nc2ncc(F)c(N(C)c3ccc4c(c3)NC(=O)C(C)(C)O4)n2)c1 [Compound 1022, N4-(2,2-Dimethyl-3-oxo-4H-benz[1,4]oxazin-6-yl)-5-fluoro-N4-methyl-N2-[3-(N-methylamino)carbonylmethyleneoxyphenyl]-2,4-pyrimidinediamine]

Compound: Cn1ncc2ccc(Nc3ncc(F)c(Nc4ccc5c(n4)NC(=O)C(C)(C)O5)n3)cc21 [Compound 1056, N4-(2,2-Dimethyl-3-oxo-4H-5-pyrid[1,4]oxazin-6-yl)-5-fluoro-N2-[1-methylindazol-6-yl]-2,4-pyrimidinediamine Hydrogen Chloride Salt]
IC50 [1, 16]: < 10 µM | IC50 [1, 17]: < 10 µM | IC50 [2, 18]: > 10 µM
